pIC50: −log10 of the molar value. Where two headings read alike, the source gives them in different places.
Tests used:
[1] = system: 134 cancer cell lines; assay: Cell viability assay (ATPlite, 72 hours), IC50 on cancer cell line panel
[2] = system: AP-1060 (ETV6-NTRK3); assay: Cell viability assay; details: read-out: IC50 in cell proliferation assay
[3] = target: T1, panel of 255 wild-type kinases (Homo sapiens, UniProt P15735); details: kinase PHKG2; 1 µmol/L single concentration; ref DOI: 10.1158/1535-7163.MCT-18-0877; cited from earlier work
T1 sequence (P15735 1-406): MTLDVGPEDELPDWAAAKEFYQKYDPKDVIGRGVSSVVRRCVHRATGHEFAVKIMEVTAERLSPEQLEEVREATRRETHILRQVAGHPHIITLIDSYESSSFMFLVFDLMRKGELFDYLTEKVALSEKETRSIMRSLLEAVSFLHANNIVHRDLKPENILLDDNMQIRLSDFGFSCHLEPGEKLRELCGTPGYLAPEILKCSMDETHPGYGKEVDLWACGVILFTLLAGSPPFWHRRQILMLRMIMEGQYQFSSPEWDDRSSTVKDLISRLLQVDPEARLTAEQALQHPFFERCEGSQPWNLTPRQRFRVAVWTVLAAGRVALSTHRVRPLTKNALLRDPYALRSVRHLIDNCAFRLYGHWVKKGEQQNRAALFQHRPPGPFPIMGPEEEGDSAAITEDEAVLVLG

SMILES: O=C(c1ccc(F)c(F)c1Nc1ccc(I)cc1F)N1CC(O)([C@@H]2CCCCN2)C1 [cobimetinib]
- pIC50 ([1]; Homo sapiens, MeWo, read-out: IC50 in cell proliferation assay, MeWo cell line): 6.48
- pIC50 ([1]; Homo sapiens, NCCIT, read-out: IC50 in cell proliferation assay, NCC-IT cell line): 5.89
- pIC50 ([1]; Homo sapiens, NCI-H82, read-out: IC50 in cell proliferation assay, cell line NCI-H82): 5.09
- pIC50 ([1]; Homo sapiens, NCI-H460, read-out: IC50 in cell proliferation assay, NCI-H460 cell line): 7.11
- pIC50 ([1]; Homo sapiens, NCI-H661, read-out: IC50 in cell proliferation assay, NCI-H661 cell line): < 5.00
- pIC50 ([1]; Homo sapiens, NCI-H716, read-out: IC50 in cell proliferation assay, cell line NCI-H716 (FGFR2-COL14A1)): 6.04
- pIC50 ([1]; Homo sapiens, NCI-H1650, read-out: IC50 in cell proliferation assay, NCI-H1650 cell line (EGFR exon19del)): 6.28
- pIC50 ([1]; Homo sapiens, NCI-H1975, read-out: IC50 in cell proliferation assay, NCI-H1975 cell line (EGFR p.L858R + p.T790M)): 7.01
- pIC50 ([1]; Homo sapiens, NCI-H2228, read-out: IC50 in cell proliferation assay, NCI-H2228 cell line (EML4-ALK)): 6.14
- pIC50 ([1]; Homo sapiens, OVCAR-3, read-out: IC50 in cell proliferation assay, cell line OVCAR-3): < 5.00
- pIC50 ([1]; Homo sapiens, PFSK-1, read-out: IC50 in cell proliferation assay, cell line PFSK-1): < 5.00
- pIC50 ([1]; Homo sapiens, RL95-2, read-out: IC50 in cell proliferation assay, cell line RL95-2 (EGFR p.A289V)): 7.47
- pIC50 ([1]; Homo sapiens, RPMI-7951, read-out: IC50 in cell proliferation assay, cell line RPMI-7951 (BRAF p.V600E)): 7.70
- pIC50 ([1]; Homo sapiens, RS4-11, read-out: IC50 in cell proliferation assay, cell line RS4;11): < 5.00
- pIC50 ([1]; Homo sapiens, Rec1, read-out: IC50 in cell proliferation assay, cell line REC-1): 5.19
- pIC50 ([1]; Homo sapiens, SHP77, read-out: IC50 in cell proliferation assay, cell line SHP-77): < 5.00
- pIC50 ([1]; Homo sapiens, SK-BR-3, read-out: IC50 in cell proliferation assay, cell line SK-BR-3 (ERBB2 amplification)): < 5.00
- pIC50 ([1]; Homo sapiens, SK-N-AS, read-out: IC50 in cell proliferation assay, cell line SK-N-AS): 7.92
- pIC50 ([1]; Homo sapiens, SK-N-FI, read-out: IC50 in cell proliferation assay, cell line SK-N-FI): 7.09
- pIC50 ([1]; Homo sapiens, SK-N-MC, read-out: IC50 in cell proliferation assay, cell line SK-N-MC): 5.12
- pIC50 ([1]; Homo sapiens, SK-N-SH, read-out: IC50 in cell proliferation assay, cell line SK-N-SH (ALK p.F1174L)): 7.43
- pIC50 ([1]; Homo sapiens, SNU-5, read-out: IC50 in cell proliferation assay, cell line SNU-5 (MET amplification)): 7.33
- pIC50 ([1]; Homo sapiens, SNU-16, read-out: IC50 in cell proliferation assay, cell line SNU-16 (FGFR2 amplification)): 5.60
- pIC50 ([1]; Homo sapiens, SNU-C2B, read-out: IC50 in cell proliferation assay, cell line SNU-C2B (EGFR p.R165Q)): 6.49
- pIC50 ([1]; Homo sapiens, SU-DHL-1, read-out: IC50 in cell proliferation assay, cell line SU-DHL-1 (NPM1-ALK)): 6.32
- pIC50 ([1]; Homo sapiens, SU-DHL-6, read-out: IC50 in cell proliferation assay, cell line SU-DHL-6): 5.70
- pIC50 ([1]; Homo sapiens, SUP-T1, read-out: IC50 in cell proliferation assay, cell line SUP-T1): < 5.00
- pIC50 ([1]; Homo sapiens, SW48, read-out: IC50 in cell proliferation assay, cell line SW48 (EGFR p.G719S)): 7.23
- pIC50 ([1]; Homo sapiens, SW480, read-out: IC50 in cell proliferation assay, cell line SW480): 6.47
- pIC50 ([1]; Homo sapiens, SW626, read-out: IC50 in cell proliferation assay, cell line SW626): 6.84
- pIC50 ([1]; Homo sapiens, SW780, read-out: IC50 in cell proliferation assay, cell line SW780 (FGFR3-BAIAP2L1)): 6.90
- pIC50 ([1]; Homo sapiens, SW837, read-out: IC50 in cell proliferation assay, cell line SW837): 6.86
- pIC50 ([1]; Homo sapiens, SW872, read-out: IC50 in cell proliferation assay, cell line SW872 (BRAF p.V600E)): 7.34
- pIC50 ([1]; Homo sapiens, SW900, read-out: IC50 in cell proliferation assay, cell line SW900): 6.53
- pIC50 ([1]; Homo sapiens, SW948, read-out: IC50 in cell proliferation assay, cell line SW948): 7.06
- pIC50 ([1]; Homo sapiens, SW982, read-out: IC50 in cell proliferation assay, cell line SW982 (BRAF p.V600E)): 5.77
- pIC50 ([1]; Homo sapiens, SW-620, read-out: IC50 in cell proliferation assay, cell line SW620): 7.03
- pIC50 ([1]; Homo sapiens, T98G, read-out: IC50 in cell proliferation assay, cell line T98G): 5.48
- pIC50 ([1]; Homo sapiens, TCC-SUP, read-out: IC50 in cell proliferation assay, cell line TCCSUP): 6.32
- pIC50 ([1]; Homo sapiens, THP-1, read-out: IC50 in cell proliferation assay, cell line THP-1): 7.70
- pIC50 ([1]; Homo sapiens, U2OS, read-out: IC50 in cell proliferation assay, cell line U2OS): 6.55
- pIC50 ([1]; Homo sapiens, U-87 MG, read-out: IC50 in cell proliferation assay, cell line U-87MG ATCC): 6.03
- pIC50 ([1]; Homo sapiens, U-118-MG, read-out: IC50 in cell proliferation assay, cell line U-118MG): 6.83
- pIC50 ([1]; Homo sapiens, UMUC3, read-out: IC50 in cell proliferation assay, cell line UM-UC-3): 7.37
- pIC50 ([1]; Hs766T, read-out: IC50 in cell proliferation assay, Hs 766T cell line): 8.22
- pIC50 ([1]; L-82, read-out: IC50 in cell proliferation assay, L-82 cell line (NPM1-ALK)): 6.60
- pIC50 ([1]; Rh30, read-out: IC50 in cell proliferation assay, cell line Rh30): 5.47
- pIC50 ([1]; read-out: IC50 in cell proliferation assay, 11-18 cell line (EGFR p.L858R)): < 5.00
- pIC50 ([1]; read-out: IC50 in cell proliferation assay, Hs 852.T cell line): 6.23
- pIC50 ([1]; read-out: IC50 in cell proliferation assay, JAR cell line): 5.20
- pIC50 ([1]; read-out: IC50 in cell proliferation assay, cell line 5637): 6.34
- pIC50 ([1]; read-out: IC50 in cell proliferation assay, cell line A-388): 6.77
- pIC50 ([1]; read-out: IC50 in cell proliferation assay, cell line DB): 5.06
- pIC50 ([1]; read-out: IC50 in cell proliferation assay, cell line DEL (NPM1-ALK)): 5.38
- pIC50 ([1]; read-out: IC50 in cell proliferation assay, cell line ES-2 (BRAF p.V600E)): 7.49
- pIC50 ([1]; read-out: IC50 in cell proliferation assay, cell line PA-1): 6.30
- pIC50 ([1]; read-out: IC50 in cell proliferation assay, cell line PC-3): < 5.00
- pIC50 ([1]; read-out: IC50 in cell proliferation assay, cell line RD): 7.04
- pIC50 ([1]; read-out: IC50 in cell proliferation assay, cell line RKO (BRAF p.V600E)): 7.42
- pIC50 ([1]; read-out: IC50 in cell proliferation assay, cell line RL): < 5.00
- pIC50 ([1]; read-out: IC50 in cell proliferation assay, cell line RT-4 (FGFR3-TACC3)): 6.52
- pIC50 ([1]; read-out: IC50 in cell proliferation assay, cell line SR (NPM1-ALK)): 6.29
- pIC50 ([1]; read-out: IC50 in cell proliferation assay, cell line T24): 7.37
- pIC50 ([1]; read-out: IC50 in cell proliferation assay, cell line TT (RET p.C634W)): 6.65
- pIC50 ([1]; read-out: IC50 in cell proliferation assay, cell line VA-ES-BJ): 5.34
- pIC50 [2]: 5.13
- %-inhibition at 1 µmol/L, PHKG2 [3]: 2.22%
